Measured values taken from patent publication US20130183239A1, “ISOTOPIC CARBON CHOLINE ANALOGS” (IMPERIAL COLLEGE, priority 2010, published 2013).

Key:
[1] = system: human melanoma SKMEL-28 xenografts; conditions: mouse, in vivo
Experimental: Dynamic [^18F]FCH and [^18F]D4-FCH imaging scans were carried out on a dedicated small animal PET scanner, quad-HIDAC (Oxford Positron Systems). The features of this instrument have been described previously (Barthel, H., et al., Cancer Res 2003; 63(13):3791-8). For scanning the tail veins, vehicle- or drug-treated mice were cannulated after induction of anesthesia (isofluorane/O2/N2O). The animals were placed within a thermostatically controlled jig (calibrated to provide a rectal temperature of ˜37° C.) and positioned prone in the scanner. [^18F]FCH or [^18F]D4-FCH (2.96-3.7 MBq) was injected via the tail vein cannula and scanning commenced. Dynamic scans were acquired in list mode format over a 60 min period as reported previously (Leyton, J., et al., Cancer Research 2006; 66(15):7621-9). The acquired data were sorted into 0.5 mm sinogram bins and 19 time frames (0.5×0.5×0.5 mm voxels; 4×15, 4×60, and 11×300 s) for image reconstruction, which was done by filtered back-projection using a two-dimensional Hamming filter (cutoff 0.6). The image data sets were visualized using the Analyze software (version 6.0; Biomedical Imaging Resource, Mayo Clinic). Cumulative images of 30 to 60 min dynamic data were used for visualization of radiotracer uptake and to draw regions of interest. Regions of interest were defined manually on five adjacent tumor regions (each 0.5 mm thickness). Dynamic data from these slices were averaged for each tissue (liver, kidney, muscle, urine, and tumor) and at each of the 19 time points to obtain time versus radioactivity curves. Corresponding whole body time versus radioactivity curves representing injected radioactivity were obtained by adding together radioactivity in all 200×160×160 reconstructed voxels. Tumor radioactivity was normalized to whole-body radioactivity and expressed as percent injected dose per voxel (% ID/vox). The normalized uptake of radiotracer at 60 min (% ID/vox60) was used for subsequent comparisons. The average of the normalized maximum voxel intensity across five slices of tumor % IDvox60max was also use for comparison to account for tumor heterogeneity and existence of necrotic regions in tumor. The area under the curve was calculated as the integral of % ID/vox from 0 to 60 min.

[2] = mouse, in vivo
Experimental: (§1) Radiolabeled metabolites from plasma and tissues were quantified using a method adapted from Smith G, Zhao Y, Leyton J, et al. Radiosynthesis and pre-clinical evaluation of [(18)F]fluoro-[1,2-(2)H(4)]choline. Nucl Med Biol. 2011; 38:39-51. Briefly, tumor-bearing mice under terminal anaesthesia were administered a bolus i.v. injection of one of the following radiotracers: ^11C-choline, ^11C-D4-choline (˜18.5 MBq) or ^18F-D4-choline (˜3.7 MBq), and sacrificed by exsanguination via cardiac puncture at 2, 15, 30 or 60 min post radiotracer injection. For automated radiosynthesis methodology, see Example 22. Tumor, kidney and liver samples were immediately snap-frozen in liquid nitrogen. Aliquots of heparinized blood were rapidly centrifuged (14000 g, 5 min, 4° C.) to obtain plasma. Plasma samples were subsequently snap-frozen in liquid nitrogen and kept on dry ice prior to analysis.
(§2) For analysis, samples were thawed and kept at 4° C. immediately before use. To ice cold plasma (200 μl) was added ice cold methanol (1.5 mL) and the resulting suspension centrifuged (14000 g; 4° C.; 3 min). The supernatant was then decanted and evaporated to dryness on a rotary evaporator (bath temperature, 40° C.), then resuspended in HPLC mobile phase (Solvent A: acetonitrile/water/ethanol/acetic acid/1.0 M ammonium acetate/0.1 M sodium phosphate [800/127/68/2/3/10]; 1.1 mL). Samples were filtered through a hydrophilic syringe filter (0.2 μm filter; Millex PTFE filter, Millipore, Mass., USA) and the sample (˜1 mL) then injected via a 1 mL sample loop onto the HPLC for analysis. Tissues were homogenized in ice-cold methanol (1.5 mL) using an Ultra-Turrax T-25 homogenizer (IKA Werke GmbH and Co. KG, Staufen, Germany) and subsequently treated as per plasma samples.
(§3) Samples were analyzed on an Agilent 1100 series HPLC system (Agilent Technologies, Santa Clara, Calif., USA), configured as described above, using the method of Leyton J, Smith G, Zhao Y, et al. [18F]fluoromethyl-[1, 2-2H4]-choline: a novel radiotracer for imaging choline metabolism in tumors by positron emission tomography. Cancer Res. 2009; 69:7721-7728. A μBondapak C18 HPLC column (Waters, Milford, Mass., USA; […]), stationary phase and a mobile phase comprising of Solvent A (vide supra) and Solvent B (acetonitrile/water/ethanol/acetic acid/1.0 M ammonium acetate/0.1 M sodium phosphate (400/400/68/44/88/10)), delivered at a flow rate of 3 mL/min were used for analyte separation. The gradient was set as follows: 0% B for 5 min; 0% to 100% B in 10 min; 100% B for 0.5 min; 100% to 0% B in 2 min; 0% B for 2.5 min.
A 2-tissue irreversible compartmental model was employed to fit the TACs, as has been previously established for ^11C-choline (Kenny L M, Contractor K B, Hinz R, et al. Reproducibility of [11C]choline-positron emission tomography and effect of trastuzumab. Clin Cancer Res. Aug. 15 2010; 16(16):4236-4245; and Sutinen E, Nurmi M, Roivainen A, et al. Kinetics of [(11)C]choline uptake in prostate cancer: a PET study. Eur J Nucl Med Mol. Imaging. March 2004; 31(3):317-324). An estimate of the whole blood TAC (wbTAC(t)) was derived from the PET image itself, as described above. […] Therefore it was fitted with a sum of 3 exponentials from the peak on and the fitted function was used as input function in the kinetic modeling (after metabolite correction, see below). […] The pf values were fitted to a sum of two exponentials with the constraint pf(t=0)=1 to obtain the function pf(t).

choline oxidase = assay: Enzymatic oxidation study using choline oxidase; conditions: 60 minute time point, radio-HPLC
HCT116 tumors = conditions: mouse, in vivo
Experimental: as §1, §2, §3
^11C-choline, ^11C-D4-choline and ^18F-D4-choline metabolism were measured in HCT116 tumors (FIG. 22).

In the case of `[2H]C([2H])(O)C([2H])([2H])[N+](C)(C)C[18F]` [[^18F]D4-FCH, [^18F]fluoromethyl-[1,2-^2H4]-choline], the “% IDvox60max (average of maximum pixel % ID/vox60 across 5 slices)” value [1] is reported as “significantly higher”, the “tumor area under the time versus radioactivity curve (AUC)” value [1] is reported as “higher” and the “liver radioactivity as betaine” value [2] is reported as 15.0±3.6%. For the same compound, the “liver radioactivity present as phosphocholine” value [2] was roughly 80%, the “plasma radioactivity in the form of betaine” value [2] was 43.7±12.4% and the “resistance to oxidation in the kidney” value [2] was “more resistant to oxidation”. The parent radiotracer present (choline oxidase) was 29±4%, the tumor betaine radioactivity (HCT116 tumors) was 14.0±3.0% and the “tumor radioactivity corresponding to phosphocholine” value (HCT116 tumors) was 45.1±3.2%. The “higher un-metabolized parent tracer in tumor compared to 11C-D4-choline” value (HCT116 tumors; 1 h) was 4.0 fold and the “higher un-metabolized parent tracer in tumor compared to 11C-choline” value (HCT116 tumors; 1 h) was 2.7 fold.
